Consider 25 compounds from PubChem BioAssay (NCI).

Converted amounts (≈) assume the structure as drawn.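 Briefly, cells in 96-well plates were exposed to five compound concentrations for 48 h, and endpoints were estimated by linear interpolation. Abbreviation: GI50, concentration required for 50% inhibition of growth. At the TGI there is no net growth.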 Where a SMILES comes first, the peptide text is derived from it. The star is where a group is joined. Cbz = O=C(OCc1ccccc1)*; Boc = CC(C)(C)OC(=O)*; tBu = CC(C)(C)*

Experiment in all cases: inhibition of tumour cell growth, NCI panel, 48 h
Assay [1] deals with CAKI-1 renal.
Assay [2] deals with HT29 colon.
The subject of assay [3] is KM12 colon.
Assay [4] relates to MALME-3M melanoma.
The test system of assay [5] is MCF7 breast.
The test system of assay [6] is NCI/ADR-RES ovarian.
In assay [7] the test system is SF-268 CNS.
Assay [8] has as its system SK-MEL-28 melanoma.
Assay [9] concerns SNB-75 CNS.
Assay [10] relates to UACC-257 melanoma.

Take `NC(CCC(=O)O)C(=O)N1CCN(c2nc(N3CCCC3)c3nc(Cl)c(NCc4ccccc4)nc3n2)CC1` (configuration not stated): the TGI came to 39.6 µM in assay [1]; 25.5 µM in assay [2]; 40.3 µM in assay [3]; 33.6 µM in [4]; 25.6 µM in assay [5]; 46.2 µM in [6]. For the same compound, the TGI was 29.1 µM in [7], 27.7 µM in assay [8], 25.3 µM in [9] and 28.5 µM in assay [10].
Turning to `Cc1ccc(C)c(COCCOCn2ccc(N)nc2=O)c1`, the TGI in assay [1], in [3], in assay [4], in assay [5], in [6] and in assay [7] was over 100 µM each time. The TGI in assay [8], in assay [9] and in [10] was over 100 µM each time.
Take `COC1(OC)CC(CO)(CNc2nc(N)nc(Cl)c2/C=N\O)C1`: the TGI is over 100 µM in assay [1]; over 100 µM in assay [2]; 24.4 µM in assay [3]; over 100 µM in assay [4]; over 100 µM in [5]; over 100 µM in [6]. Also, the TGI in [7], in [8], in assay [9] and in [10] was over 100 µM each time.
On to `O=c1[nH]nc(Cc2ccccc2)[nH]1`, for which the TGI in assay [1], in assay [2], in assay [3], in assay [4], in assay [5] and in [6] was over 100 µM each time. The TGI in assay [7], in [8], in [9] and in assay [10] was over 100 µM throughout.
In the case of `O=C(Cc1ccccc1)N/N=C/c1ccccc1O`, the TGI was over 100 µM in assay [1]; over 100 µM in [2]; over 100 µM in assay [3]; 66.6 µM in assay [4]; over 100 µM in [5]; over 100 µM in [6]. Also, the TGI in [7] was over 100 µM; in [8], over 100 µM; in assay [9], 59.8 µM; in assay [10], 58 µM.
Turning to `C=C1CC[C@H](O)C(C)(C)[C@@H]1CC/C(C)=C/CC/C=C(\C)CC/C=C(\C)CCC=C(C)C`, the TGI in assay [1], in assay [2], in assay [3], in [4], in assay [5] and in [6] was over 100 µM in each case. Also, the TGI in assay [7], in assay [8], in assay [9] and in [10] was over 100 µM in each case.
On to `CC1ON2CCCC2[C@H]1C(=O)N1C2CC3CCC2(CS1(=O)=O)C3(C)C` (some centres not stated), for which the TGI in [1], in assay [2], in [3], in assay [4], in assay [5] and in assay [6] was over 100 µM each time. The TGI in [7], in assay [8], in assay [9] and in [10] was over 100 µM throughout.
In the case of `COC(=O)C(COC(C)=O)NC(=O)/C=C/c1ccc(O)c(OC(C)=O)c1` (configuration not stated), the TGI in [1], in [2], in [3], in assay [4], in [5] and in [6] was over 100 µM throughout. The TGI in [7], in [8], in [9] and in [10] was over 100 µM in each case.
Take `O=c1[nH]c(Nc2nc3ccccc3[nH]2)nc2c1CCC2`: the TGI in assay [1], in assay [2], in [4], in [5], in assay [6] and in assay [7] was over 100 µM each time. In addition, the figures for the TGI in assay [8], in [9] and in assay [10] were over 100 µM, 77.8 µM and over 100 µM, respectively.
Take `Cc1cccc2c(N)c3cccc(C(=O)NCC[N+](C)(C)Cc4c([N+](=O)[O-])ncn4C)c3nc12`: the TGI was 23.9 µM in assay [1]; over 40.4 µM in assay [2]; over 100 µM in assay [3]; over 100 µM in [4]; over 47.3 µM in assay [5]; over 100 µM in assay [6]. Moreover, the TGI in assay [7], in [8], in assay [9] and in assay [10] was over 100 µM throughout.
As for `CCOC(=O)CN=C1NNS(=O)(=O)c2ccccc21`, the TGI in [1], in assay [2], in assay [3], in [4], in [5] and in assay [6] was over 100 µM in each case. The TGI in [7], in assay [8], in assay [9] and in [10] was over 100 µM each time.
As to `CCOC(=O)C1(C(=O)OCC)C[C@H](C)[C@](C)(O)C1`, the TGI in [1], in [2], in assay [3], in assay [4], in assay [5] and in [6] was over 100 µM each time. Also, the TGI in [7], in [8], in assay [9] and in assay [10] was over 100 µM each time.
With `Cc1ccc(-c2c3nc(c(-c4ccc(C)cc4)c4ccc([nH]4)c(-c4ccc(OCC5COC(C)(C)O5)cc4)c4nc(c(-c5ccc(C)cc5)c5ccc2[nH]5)C=C4)C=C3)cc1` (configuration not stated), the TGI in assay [1] is over 100 µM; in [2], over 31.6 µM; in [3], over 31.6 µM; in assay [4], over 31.6 µM; in assay [5], over 31.6 µM; in assay [6], over 31.6 µM. Further, the TGI in assay [7], in assay [8], in assay [9] and in assay [10] was over 31.6 µM each time.
With `C=C(C)C(=O)OC1CCC2(C)C(CCC3C2CCC2(C)C(c4ccc(=O)oc4)CC4OC432)C1` (configuration not stated), the TGI in assay [1] turned out to be 15 µM; in assay [2], 52 µM; in assay [3], 24.3 µM; in assay [4] it was 26.4 µM; in assay [5], 13.2 µM; in [6], 26 µM. For the same compound, the TGI in assay [7] was 31.9 µM; in [8], 44.5 µM; in assay [9], 36.6 µM; in assay [10] it was 17.2 µM.
On to `NC(N)=N/N=C/c1c(-c2cccc([N+](=O)[O-])c2)nc2n1CCS2`, for which the TGI in assay [1] was 68.4 µM; in assay [2], 32.7 µM; in assay [3], 68.5 µM; in assay [4] it was 38.1 µM; in assay [5], 36.1 µM; in assay [6], over 100 µM. Moreover, the TGI amounted to 46.6 µM in [7], 41.5 µM in assay [8], 25.1 µM in [9] and 36.1 µM in [10].
As for `COc1cc(OC)c2c(=O)c(OC)c(-c3ccc4c(c3)OCO4)oc2c1`, the TGI in assay [1] is 60.5 µM; in assay [2] it was over 100 µM; in assay [3], over 100 µM; in [4] it was over 100 µM; in assay [5], over 100 µM; in assay [6], over 100 µM. The TGI in assay [7] was 66.6 µM; in assay [8], over 100 µM; in [9], 33.5 µM; in [10], over 100 µM.
In the case of `NCCCCC(N)C(=O)NCCNc1ccc(NCCNC(=O)C(N)CCCCN)c2c1C(=O)c1ccccc1C2=O` (configuration not stated), the TGI in assay [1], in assay [2], in assay [3], in assay [4], in [5] and in [6] was over 100 µM throughout. In addition, the TGI in assay [7], in assay [8], in assay [9] and in assay [10] was over 100 µM in each case.
Take `O=C1NN(C2=NNC3(C(=O)N2)c2ccccc2-c2ccccc23)C(c2ccccc2)=N/C1=C/c1ccc(O)cc1`: the GI50 in [1] was 64.2 µg/mL; in assay [2], over 150 µg/mL; in [3] it was 28.6 µg/mL (≈ 54.4 µM); in assay [4], 15 µg/mL; in assay [5], 39.4 µg/mL; in assay [6] it was 50.9 µg/mL. Besides, the GI50 was 49.9 µg/mL in [7], 83 µg/mL (≈ 158 µM) in assay [8], 57.4 µg/mL in [9] and 113 µg/mL (≈ 214 µM) in assay [10]. For the same compound, the TGI in [1] is over 150 µg/mL; in assay [2], over 150 µg/mL; in assay [3], 57.6 µg/mL; in assay [4] it was 15 µg/mL; in assay [5] it was over 150 µg/mL; in assay [6], over 150 µg/mL. The TGI in assay [7], in assay [8], in assay [9] and in assay [10] was over 150 µg/mL each time.
`COc1cc2c(cc1OC)CCc1cc(OC)c(OC)cc1CC2`: the TGI in [1], in assay [2], in assay [3], in [4], in assay [5] and in assay [6] was over 100 µM throughout. Besides, the TGI in [8], in assay [9] and in assay [10] was over 100 µM in each case.
Regarding `CN(C)CCCN1c2ccccc2Sc2cnccc21`, the TGI in assay [1], in assay [2], in assay [3], in assay [4], in [5] and in assay [6] was over 100 µM throughout. In addition, the TGI in [7] was over 100 µM; in assay [8] it was over 100 µM; in assay [9], over 100 µM; in [10], 49.5 µM.
Regarding `CC(OC(C)(C)C)C(NC(=O)C(CCCCNC(=O)OC(C)(C)C)NC(=O)C(Cc1c[nH]c2ccccc12)NC(=O)C(Cc1ccccc1)NC(=O)OCc1ccccc1)C(=O)NC(Cc1ccccc1)C(=O)O` (configuration not stated) (Cbz-FWK(Boc)T(tBu)F-OH; configuration not given here), the TGI in assay [1], in assay [2], in [3], in assay [4], in [5] and in [6] was over 100 µM each time. Moreover, the TGI in assay [7], in assay [8], in assay [9] and in assay [10] was over 100 µM in each case.
As to `Cc1ccc(/C=C2\CCC/C(=C\c3ccc(O)c(CN4CCCCC4)c3)C2=O)cc1`, the TGI in [1] was 33 µM; in assay [2] it was 3.78 µM; in [3] it was 8.33 µM; in [4], 43.7 µM; in assay [5] it was 23.1 µM; in assay [6], 12 µM. The TGI is 13 µM in assay [7], over 53.5 µM in assay [8], 22.6 µM in assay [9] and 25.3 µM in assay [10].
`COc1cc(/C=C2\CCCC3=C2NC(C)=NC3c2cc(OC)c(OC)c(OC)c2)cc(OC)c1OC` (configuration not stated): the GI50 in assay [1] is 2.61 µM; in [4], 1.6 µM; in [5] it was 1.45 µM; in assay [6], 0.505 µM; in assay [7], 1.88 µM; in [9], over 100 µM. Further, the TGI was 22.9 µM in [1]; 4.76 µM in [4]; over 100 µM in assay [5]; over 100 µM in [6]; over 100 µM in assay [7]; over 100 µM in assay [9].
In the case of `C=C(CC[C@@H](C)[C@H]1CC[C@@]2(C)C3=C(CC[C@]12C)[C@@]1(C)CC[C@H](O)[C@@H](C)C1CC3)C(C)C` (some centres not stated), the TGI is 2.26 µM in assay [1]; 1.97 µM in assay [2]; 2.76 µM in assay [3]; 2.51 µM in [4]; 2.69 µM in assay [5]; 3.65 µM in [6]. The TGI worked out at 2.51 µM in assay [8], 2.49 µM in assay [9] and 2.7 µM in [10].
For the compound `CNC(=O)N1CN(c2ccccc2)C2(CCN(CCCC3(c4ccc(F)cc4)OCCO3)CC2)C1=O`, the TGI in [1], in assay [2], in [3], in assay [4], in [5] and in assay [6] was over 100 µM in each case. Besides, the TGI in [7], in assay [8] and in assay [9] was over 100 µM throughout.
